Target: T1, recombinant human BACE-1 (rhBACE-1) (Homo sapiens, UniProt P56817)
T1 construct: expressed as only an extracellular region (amino acid 1-460 residues) of recombinant human β-secretase; His tag (C); purchased R&D systems (Minneapolis, Minn.); host or cells: murine myeloma cell line NS0
Test: BACE1 inhibitory activity, rhBACE-1 with fluorogenic peptide substrate, reverse phase HPLC
Type: biochemical
Conditions: inhibitor 2 μM; MES buffer pH 5.0, 37° C., 60 minutes; read-out: Inhibitory rate (%) (2 μM)
Text: Experiment Regarding Measurement of BACE1 Inhibitory Activity Enzyme Used in Measurement As an enzyme having β-secretase activity, recombinant human BACE-1 (rhBACE-1) purchased from R&D systems (Minneapolis, Minn.) was used. rhBACE-1 is expressed as only an extracellular region ([…] residues) of recombinant human β-secretase, with a His tag at its carboxyl terminus in murine myeloma cell line, NS0. Purified secreted rhBACE1 is a mixture of a pro entity (about 75 kDa) and a mature entity (about 72 kDa). […] Assessment of Enzyme Inhibitory Activity […] After incubation at 37° C. for 60 minutes, 20 μL of 20% trichloroacetic acid was added to stop the reaction. And, inhibition % was calculated by measuring a fluorescent intensity of the N-terminal fragment (Ex, 328 nm; […]

T1 sequence (P56817 46-460 limits assumed): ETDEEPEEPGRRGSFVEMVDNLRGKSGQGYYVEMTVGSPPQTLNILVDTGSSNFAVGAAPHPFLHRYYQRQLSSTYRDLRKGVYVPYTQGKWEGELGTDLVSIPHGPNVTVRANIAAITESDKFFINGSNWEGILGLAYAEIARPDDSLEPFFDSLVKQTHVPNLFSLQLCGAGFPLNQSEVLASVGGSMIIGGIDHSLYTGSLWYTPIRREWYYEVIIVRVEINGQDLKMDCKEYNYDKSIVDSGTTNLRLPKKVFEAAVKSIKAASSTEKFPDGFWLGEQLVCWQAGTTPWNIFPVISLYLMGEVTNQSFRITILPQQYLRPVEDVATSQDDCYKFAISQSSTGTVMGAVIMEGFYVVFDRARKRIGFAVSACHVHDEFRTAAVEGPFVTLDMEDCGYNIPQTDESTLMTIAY

| inhibition at 2 µM | SMILES |
| --- | --- |
| 70.1% | C[C@@H](NC(=O)c1cc(=O)cc(C(=O)N[C@@H](Cc2ccccc2)[C@H](O)C(=O)Nc2cccc(-c3nn[nH]n3)c2)o1)c1ccccc1 [Example 1] |
| 75.8% | C[C@@H](NC(=O)c1cc(=O)cc(C(=O)N[C@@H](Cc2ccccc2)[C@H](O)C(=O)Nc2cccc(-c3nn[nH]n3)c2)o1)c1ccc(F)cc1 [Example 22] |
| 26.8% | C[C@@H](NC(=O)c1cc(=O)cc(C(=O)N[C@@H](Cc2ccccc2)[C@H](O)C(=O)Nc2cccc(-c3nn[nH]n3)c2)o1)c1ccc([N+](=O)[O-])cc1 [Example 3] |
| 70.4% | COc1ccc([C@@H](C)NC(=O)c2cc(=O)cc(C(=O)N[C@@H](Cc3ccccc3)[C@H](O)C(=O)Nc3cccc(-c4nn[nH]n4)c3)o2)cc1 [Example 5] |
| 80.8% | CC(C)(NC(=O)c1cc(=O)cc(C(=O)N[C@@H](Cc2ccccc2)[C@H](O)C(=O)Nc2cccc(-c3nn[nH]n3)c2)o1)c1ccccc1 [Example 21] |

Continued, molecule first:

| SMILES | inhibition at 2 µM |
| --- | --- |
| CN(Cc1ccccc1)C(=O)c1cc(=O)cc(C(=O)N[C@@H](Cc2ccccc2)[C@H](O)C(=O)Nc2cccc(-c3nn[nH]n3)c2)o1 [Example 6] | 66.9% |
| CS(=O)(=O)Oc1cc(C(=O)NC(Cc2ccccc2)[C@H](O)C(=O)Nc2cccc(-c3nn[nH]n3)c2)nc(C(=O)N2COCC2c2ccccc2)c1 (stereo partly shown) [Example 16] | 95.6% |
| CC(C)(NC(=O)c1cccc(C(=O)NC(Cc2ccccc2)[C@H](O)C(=O)NS(=O)(=O)C(F)(F)F)n1)c1ccccc1 (stereo partly shown) [Example 17] | 37.4% |
| O=C(NC(Cc1ccccc1)[C@H](O)C(=O)Nc1cccc(-c2nn[nH]n2)c1)c1cc(=O)cc(C(=O)N2COCC2c2ccccc2)o1 (stereo partly shown) [Example 13] | 95.6% |
| O=C(NC(Cc1ccccc1)[C@H](O)C(=O)Nc1cccc(-c2nn[nH]n2)c1)c1cccc(C(=O)N2COCC2c2ccccc2)n1 (stereo partly shown) [Example 15] | 92.6% |
| O=C(NC(Cc1ccccc1)[C@H](O)C(=O)Nc1cccc(-c2nn[nH]n2)c1)c1cc(=O)cc(C(=O)N2COCC2c2ccccc2)[nH]1 (stereo partly shown) [Example 14] | 82.7% |
| C[C@@H](NC(=O)c1cccc(C(=O)NC(Cc2ccccc2)[C@H](O)C(=O)Nc2cccc(-c3nn[nH]n3)c2)n1)c1ccccc1 (stereo partly shown) [Example 9] | 65.6% |
| CC(C)(NC(=O)c1cc(=O)cc(C(=O)NC(Cc2ccccc2)[C@H](O)C(=O)Nc2cccc(-c3nn[nH]n3)c2)[nH]1)c1ccccc1 (stereo partly shown) [Example 8] | 65.1% |
| CC(C)(NC(=O)c1cccc(C(=O)NC(Cc2ccccc2)[C@H](O)C(=O)Nc2cccc(-c3nn[nH]n3)c2)n1)c1ccccc1 (stereo partly shown) [Example 10] | 69.1% |
| O=C(N[C@@H](Cc1ccccc1)[C@H](O)C(=O)Nc1cccc(-c2nn[nH]n2)c1)c1cc(=O)cc(C(=O)N(Cc2ccccc2)Cc2ccccc2)o1 [Example 2] | 28.8% |
| C[C@@H](NC(=O)c1cc(=O)cc(C(=O)NC(Cc2ccccc2)[C@H](O)C(=O)Nc2cccc(-c3nn[nH]n3)c2)[nH]1)c1ccccc1 (stereo partly shown) [Example 7] | 50.8% |

— patent US8344002B2, “Compound having β-secretase inhibitory activity” (priority 2007, dated 2013)
